Activity calls are given as the source filed them. The calls are words filed in the database; no cut-off is given here.
Key:
[1] = target: T1, M-phase inducer phosphatase 2 (Homo sapiens) (UniProt P30305); test: Inhibition of recombinant human Cdc25B ([…] residues) using O-methylfluorescein phosphate as substrate at 30 uM by fluorescence assay
T1 sequence (whole entry): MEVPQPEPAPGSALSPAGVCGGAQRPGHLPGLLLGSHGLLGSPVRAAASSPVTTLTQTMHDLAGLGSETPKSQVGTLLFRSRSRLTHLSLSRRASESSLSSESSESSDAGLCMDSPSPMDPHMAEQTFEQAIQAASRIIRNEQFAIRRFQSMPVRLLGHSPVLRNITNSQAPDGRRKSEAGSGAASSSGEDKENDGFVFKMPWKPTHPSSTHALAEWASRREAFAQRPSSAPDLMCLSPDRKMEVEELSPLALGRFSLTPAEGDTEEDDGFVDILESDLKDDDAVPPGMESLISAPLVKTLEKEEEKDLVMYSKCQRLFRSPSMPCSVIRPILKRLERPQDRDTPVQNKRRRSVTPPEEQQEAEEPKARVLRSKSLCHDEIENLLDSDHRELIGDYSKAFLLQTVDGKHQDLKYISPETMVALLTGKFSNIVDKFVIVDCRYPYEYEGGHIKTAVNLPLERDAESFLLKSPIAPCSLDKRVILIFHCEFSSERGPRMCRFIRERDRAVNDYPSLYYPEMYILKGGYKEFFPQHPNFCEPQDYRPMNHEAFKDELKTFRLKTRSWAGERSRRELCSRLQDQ

[2] = target: T2, M-phase inducer phosphatase 1 (Homo sapiens) (UniProt P30304); test: Inhibition of Cdc25A (unknown origin) at 1 to 30 uM; settings: dose 1-30 µM
T2 sequence (whole entry): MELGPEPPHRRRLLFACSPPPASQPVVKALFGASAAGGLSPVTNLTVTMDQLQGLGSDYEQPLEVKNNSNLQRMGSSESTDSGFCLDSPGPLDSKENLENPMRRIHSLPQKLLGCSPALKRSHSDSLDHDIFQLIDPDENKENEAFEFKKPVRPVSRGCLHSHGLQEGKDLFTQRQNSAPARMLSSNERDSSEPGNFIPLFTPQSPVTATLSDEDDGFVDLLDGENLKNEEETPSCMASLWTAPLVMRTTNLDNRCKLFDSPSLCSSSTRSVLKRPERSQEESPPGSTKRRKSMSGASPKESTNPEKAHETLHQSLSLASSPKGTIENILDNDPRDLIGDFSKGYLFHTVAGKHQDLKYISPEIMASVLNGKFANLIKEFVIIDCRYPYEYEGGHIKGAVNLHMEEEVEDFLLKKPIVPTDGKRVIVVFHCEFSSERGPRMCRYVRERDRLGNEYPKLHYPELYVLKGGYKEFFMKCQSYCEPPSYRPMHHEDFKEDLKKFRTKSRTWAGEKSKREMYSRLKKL

[3] = target: T1, M-phase inducer phosphatase 2 (Homo sapiens); test: Inhibition of recombinant human Cdc25B ([…] residues) using O-methylfluorescein phosphate as substrate at 1 to 30 uM by fluorescence assay; settings: dose 1-30 µM
[4] = target: T1, M-phase inducer phosphatase 2 (Homo sapiens); test: Inhibition of recombinant human Cdc25B ([…] residues) using O-methylfluorescein phosphate as substrate at 1 to 500 uM by fluorescence assay; settings: dose 1-500 µM
[5] = target: T2, M-phase inducer phosphatase 1 (Homo sapiens); test: Inhibition of Cdc25A (unknown origin) at 1 to 500 uM by fluorescence assay; settings: dose 1-500 µM
[6] = target: T3, M-phase inducer phosphatase 2 (Homo sapiens, UniProt P30305); test: Competitive inhibition of recombinant human Cdc25B ([…] residues) assessed as hydrolysis of substrate O-methylfluorescein phosphate by Lineweaver-Burk plot analysis
T3 sequence (P30305 whole entry): T1 sequence (whole entry)

| inhibition (active/inactive) [4] | inhibition [5] | Compound | further results |
| --- | --- | --- | --- |
|  |  | O=C(O)C[C@H](Nc1nc(NCCCCCCCCCCNc2nc(N[C@@H](CC(=O)O)C(=O)O)nc(N[C@@H](Cc3c[nH]c4ccccc34)C(=O)O)n2)nc(N[C@@H](Cc2ccc(O)cc2)C(=O)O)n1)C(=O)O | inhibition [1]: 1.5%; inhibition [2]: Active |
|  |  | O=C(O)C[C@H](Nc1nc(O)nc(N[C@@H](Cc2ccc(O)cc2)C(=O)O)n1)C(=O)O | inhibition [3]: inactive |
| Active |  | C[C@H](Nc1nc(NCCCCCNC(=O)CCCNc2nc(N[C@@H](CC(=O)O)C(=O)O)nc(N[C@@H](Cc3ccc(O)cc3)C(=O)O)n2)nc(N[C@@H](C)C(=O)O)n1)C(=O)O |  |
| Active |  | COC(=O)[C@H](CCCCN)Nc1nc(NCCCCCNC(=O)CCCNc2nc(N[C@@H](CCCCN)C(=O)OC)nc(N[C@@H](CCCCN)C(=O)OC)n2)nc(N[C@@H](CCCCN)C(=O)OC)n1 |  |
|  |  | O=C(O)C[C@H](Nc1nc(O)nc(N[C@@H](Cc2c[nH]c3ccccc23)C(=O)O)n1)C(=O)O | inhibition [3]: inactive |
| Active | Active | C[C@H](Nc1nc(NCCCCCNC(=O)CCCNc2nc(N[C@@H](C)C(=O)O)nc(N[C@@H](C)C(=O)O)n2)nc(N[C@@H](C)C(=O)O)n1)C(=O)O |  |
| Active | inactive | O=C(O)C[C@H](Nc1nc(NCCCC(=O)NCCCCCNc2nc(N[C@@H](CC(=O)O)C(=O)O)nc(N[C@@H](Cc3c[nH]c4ccccc34)C(=O)O)n2)nc(N[C@@H](Cc2ccc(O)cc2)C(=O)O)n1)C(=O)O | Ki [6]: 2600 nM; inhibition [1]: 43% |
| Active | inactive | CC(C)C[C@H](Nc1nc(NCCCCCNC(=O)CCCNc2nc(N[C@@H](CC(=O)O)C(=O)O)nc(N[C@@H](Cc3ccc(O)cc3)C(=O)O)n2)nc(N[C@@H](C)C(=O)O)n1)C(=O)O |  |
